According to patent publication US5869658A, “Photochromic indeno-fused naptho[2,1-b]pyrans” (PPG Industries, Inc., priority 1997, dated 1999):

Key:
[1] = Lambda max of photochromic test squares by UV-Visible spectrophotometer; assay type: physicochemical; design: unit not given here; details: Varian Cary 3; for (λ) max (VIS): activated (colored) form in polymer test square, visible spectrum wavelength of maximum absorption; for (λ) max (UV): photochromic compound in polymer test square, ultraviolet wavelength closest to the visible spectrum
Description: (§1) Testing was done with the photochromic compounds described in Examples 1-5 and 7-9 in the following manner. A quantity of photochromic compound calculated to yield a 1.5×10^-3 molal solution was added to a flask containing 50 grams of a monomer blend of 4 parts ethoxylated bisphenol A dimethacrylate (BPA 2EO DMA), 1 part poly(ethylene glycol) 600 dimethacrylate, and 0.033 weight percent 2,2'-azobis(2-methyl propionitrile) (AIBN). The photochromic compound was dissolved into the monomer blend by stirring and gentle heating. After a clear solution was obtained, it was poured into a flat sheet mold having the interior dimensions of 2.2 mm×6 inches (15.24 cm)×6 inches (15.24 cm). The mold was sealed and placed in a horizontal air flow, programmable oven programmed to increase the temperature from 40° C. to 95° C. over a 5 hour interval, hold the temperature at 95° C. for 3 hours and then lower it to 60° C. for at least 2 hours. After the mold was opened, the polymer sheet was cut using a diamond blade saw into 2 inch (5.1 centimeters) test squares.
(§2) The Δ OD/Min, which represents the sensitivity of the photochromic compound's response to UV light, was measured over the first five (5) seconds of UV exposure, then expressed on a per minute basis. The saturation optical density (Δ OD@ Sat) was taken under identical conditions as the Δ OD/Min, except UV exposure was continued for 20 minutes. The lambda max (Vis) is the wavelength in the visible spectrum at which the maximum absorption of the activated (colored) form of the photochromic compound in a test square occurs. The lambda max (Vis) wavelength was determined by testing the photochromic test square polymerizates of Part A in a Varian Cary 3 UV-Visible spectrophotometer. The lambda (λ) max (UV) is the wavelength in the ultraviolet range closest to the visible spectrum at which the absorption of the photochromic compound occurs. This absorption was also determined with the same spectrophotometer. The bleach rate (T 1/2) is the time interval in seconds for the absorbance of the activated form of the photochromic compound in the test squares to reach one half the highest absorbance at room temperature (75° F., 23.90° C.) after removal of the source of activating light.

[2] = Photochromic response of test squares on an optical bench (ΔOD/Min, ΔOD at saturation, bleach rate); assay type: physicochemical; details: for ΔOD @ saturation: UV exposure continued for 20 minutes; for ΔOD @ saturation / ΔOD/MIN sensitivity: 75° F., 1.5×10^-3 molal in polymer; for ΔOD/MIN sensitivity: first five seconds of UV exposure, expressed per minute; for Bleach T 1/2: time to one half the highest absorbance at room temperature (75° F.) after removal of activating light
Description: as §1
The photochromic test squares prepared in Part A were tested for photochromic response on an optical bench. Prior to testing on the optical bench, the photochromic test squares were exposed to 365 nanometer ultraviolet light for about 15 minutes to activate the photochromic compounds and then placed in a 76° C. oven for about 15 minutes to bleach or inactivate the photochromic compounds. The test squares were then cooled to room temperature, exposed to fluorescent room lighting for at least 2 hours and then kept covered for at least 2 hours prior to testing on an optical bench maintained at 75° F. (23.90° C.). The bench was fitted with a 150 watt Xenon arc lamp, a remote controlled shutter, a copper sulfate bath acting as a heat sink for the arc lamp, a Schott WG-320 nm cut-off filter which removes short wavelength radiation; neutral density filter(s) and a sample holder in which the square to be tested was inserted. A collimated beam of light from a tungsten lamp was passed through the square at a small angle (approximately 30°) normal to the square. After passing through the square, the light from the tungsten lamp was directed to a detector through Spectral Energy Corp. GM-200 monochromator set at the previously determined visible lambda max of the photochromic compound being measured. The output signals from the detector were processed by a radiometer.
Change in optical density (ΔOD) was determined by inserting a test square in the bleached state into the sample holder, adjusting the transmittance scale to 100% opening the shutter from the Xenon lamp to provide ultraviolet radiation to change the test square from the bleached state to an activated (i.e., darkened) state, measuring the transmittance in the activated state, and calculating the change in optical density according to the formula: ΔOD=log(100/%Ta), where %Ta is the percent transmittance in the activated state and the logarithm is to the base 10.
as §2, with “The bleach rate (T 1/2) is the time interval in seconds for the absorbance of the activated form of the photochromic compound in the test squares to reach one half the highest absorbance at room temperature (75° F., 23.90° C.) after removal of the source of activating light.” left out

(λ) max (VIS) [1]	(λ) max (UV) [1]	ΔOD @ saturation [2]	ΔOD/MIN sensitivity [2]	Bleach T 1/2 [2] [s]	SMILES
469	359	0.17	0.28 ΔOD/MIN	31	COc1cc2c3c(c4c(c2cc1OC)-c1ccccc1C4O)OC(c1ccccc1)(c1ccccc1)C=C3 (stereo not drawn) [Example 9, 6,7-dimethoxy-2,2-diphenyl-13-hydroxy-2,13-dihydro-indeno[1',2':4,3]naphtho[2,l-b]pyran]
446	358	0.37	0.39 ΔOD/MIN	58	COc1cc2c3c(c4c(c2cc1OC)-c1ccccc1C4(C)C)OC(c1ccccc1)(c1ccccc1)C=C3 [Example 5, 6,7-dimethoxy-2,2-diphenyl-13,13-dimethyl-2,13-dihydro-indeno[1',2':4,3]naphtho[2,1-b]pyran]
459	361	0.25	0.41 ΔOD/MIN	35	COc1cc2c3c(c4c(c2cc1OC)-c1ccccc1C4(C)O)OC(c1ccccc1)(c1ccccc1)C=C3 (stereo not shown) [Example 8, 6,7-dimethoxy-2,2-diphenyl-13-hydroxy-13-methyl-2,13-dihydro-indeno[1',2':4,3]naphtho[2,1-b]pyran]
445	356	0.23	0.41 ΔOD/MIN	38	CCCCC1(O)c2ccccc2-c2c1c1c(c3cc(OC)c(OC)cc23)C=CC(c2ccccc2)(c2ccccc2)O1 (stereo not shown) [Example 7, 6,7-dimethoxy-2,2-diphenyl-13-hydroxy-13-butyl-2,13-dihydro-indeno[1',2':4,3]naphtho[2,1-b]pyran]
442	356	0.38	0.43 ΔOD/MIN	62	COc1cc2c3c(c4c(c2cc1OC)-c1ccccc1C4C)OC(c1ccccc1)(c1ccccc1)C=C3 (stereo not shown) [Example 4, 6,7-dimethoxy-2,2-diphenyl-13-methyl-2,13-dihydro-indeno[1',2':4,3]naphtho[2,1-b]pyran]

The next lines start with the molecule.

SMILES	(λ) max (VIS) [1]	(λ) max (UV) [1]	ΔOD @ saturation [2]	ΔOD/MIN sensitivity [2]	Bleach T 1/2 [2] [s]
COc1cc2c3c(c4c(c2cc1OC)-c1ccccc1C4)OC(c1ccccc1)(c1ccccc1)C=C3 [Example 2, 6,7-dimethoxy-2,2-diphenyl-2,13-dihydro-indeno[1'2':4,3]naphtho[2,1-b]pyran]	443	387	0.44	0.48 ΔOD/MIN	51
COc1ccc(C2(c3ccccc3F)C=Cc3c(c4c(c5cc(OC)c(OC)cc35)-c3ccccc3C4)O2)cc1 (stereo not shown) [Example 3, 6,7-dimethoxy-2-(2-fluorophenyl)-2-(4-methoxyphenyl)-2,13-dihydro-indeno[1',2':4,3]naphtho[2,1-b]pyran]	464	385	1.22	0.48 ΔOD/MIN	227
COc1ccc2c3c(c4c(c2c1)C=CC(c1ccccc1)(c1ccccc1)O4)Cc1ccccc1-3 [Example 1, 6-methoxy-2,2-diphenyl-2,13-dihydro-indeno[1'2':4,3]naphtho[2,1-b]pyran]	437	366	0.38	0.52 ΔOD/MIN	42
